Assay results from patent publication US9981962B2, “Pyrazole derivatives as NIK inhibitors” (Janssen Pharmaceutica NV, priority 2014, dated 2018).

Assays:
[1] = molecular target: T1, Recombinant Human NF-kappaB-Inducing Kinase (NIK/MAP3K14) (Homo sapiens, UniProt Q99558); test: Biological Assay A: inhibition of recombinant human NIK/MAP3K14 activity (MSD, MBP substrate); settings: 10 nM NIK, 25 μM ATP, 1 h at 25° C.; averaged over all measurements on all batches; read-out: Biochemical (MSD IC50)
Method: Inhibition of Recombinant Human NF-kappaB-Inducing Kinase (NIK/MAP3K14) Activity Assay buffer was 50 mM Tris pH 7.5 containing 1 mM EGTA (ethylene glycol tetraacetic acid), 1 mM DTT (dithiothreitol), 0.1 mM Na3VO4, 5 mM MgCl2, 0.01% Tween® 20. Assays were carried out in 384 well Mesoscale high binding plates which had been coated with myelin basic protein (MBP) and blocked with bovine serum albumin to prevent non-specific protein binding. All compounds tested were dissolved in dimethyl sulfoxide (DMSO) and further dilutions were made in assay buffer. Final DMSO concentration was 1% (v/v) in assays. Incubations consisted of compound (1% DMSO in control and blank wells), 25 μM Adenosine-5′-triphosphate (ATP), and 10 nM NIK/MAP3K14 substituting enzyme with buffer in the blank wells. Incubations were carried out for 1 h at 25° C. and were followed by washing and sequential incubation with rabbit anti-phospho-MBP and anti-rabbit Ig Sulfotag antibody before reading bound Sulfotag on a Mesoscale Discovery. Signal obtained in the wells containing blank samples was subtracted from all other wells and ICso's were determined by fitting a sigmoidal curve to % inhibition of control versus Log10 compound concentration.

[2] = molecular target: T1, Recombinant Human NF-kappaB-Inducing Kinase (NIK/MAP3K14); test: Biological Assay A2: inhibition of auto-phosphorylation of recombinant human NIK/MAP3K14 (AlphaScreen); type: biochemical; settings: 0.2 nM GST-tagged NIK, 25 microM ATP, 1 h at 25° C., averaged values
Method: Inhibition of Auto-Phosphorylation of Recombinant Human NF-kappaB-Inducing Kinase (NIK/MAP3K14) Activity (AlphaScreen®)
NIK/MAP3K14 auto-phosphorylation activity was measured using the AlphaScreen® (αscreen) format (Perkin Elmer). All compounds tested were dissolved in dimethyl sulfoxide (DMSO) and further dilutions were made in assay buffer. Final DMSO concentration was 1% (v/v) in assays. Assay buffer was 50 mM Tris pH 7.5 containing 1 mM EGTA (ethylene glycol tetraacetic acid), 1 mM DTT (dithiothreitol), 0.1 mM Na3VO4, 5 mM MgCl2, 0.01% Tween® 20. Assays were carried out in 384 well Alphaplates (Perkin Elmer). Incubations consisted of compound, 25 microM Adenosine-5′-triphosphate (ATP), and 0.2 nM NIK/MAP3K14. Incubations were initiated by addition of GST-tagged NIK/MAP3K14 enzyme, carried out for 1 h at 25° C. and terminated by addition of stop buffer containing anti-phospho-IKK Ser176/180 antibody. Protein A Acceptor and Glutathione-Donor beads were added before reading using an EnVision® Multilabel Plate Reader (Perkin Elmer). Signal obtained in the wells containing blank samples was subtracted from all other wells and IC50's were determined by fitting a sigmoidal curve to % inhibition of control versus Log10 compound concentration.

[3] = test system: P-IKKα levels in L363 cells; test: Biological Assay B: effect of compounds on P-IKKα levels in L363 cells; type: cell-based; settings: Homo sapiens, L-363, BAFF stimulated, 2 hr treatment, averaged values, read-out: IKKα Cellular IC50
Method: Effect of Compounds on P-IKKα Levels in L363 Cells
All compounds tested were dissolved in DMSO and further dilutions were made in culture medium. Final DMSO concentration was 1% (v/v) in cell assays. The human L363 cells (ATCC) were cultured in RPMI 1640 medium supplemented with GlutaMax and 10% fetal calf serum (PAA). Cells were routinely maintained at densities of 0.2×10^6 cells per ml—1×10^6 cells per ml at 37° C. in a humidified 5% CO2 atmosphere. Cells were passaged twice a week splitting back to obtain the low density. Cells were seeded in 96 well plates (Nunc 167008) at 2×10^6 per ml media in a volume of 75 μl per well plus 25 μl 1 μg/ml recombinant human B-cell activating factor (BAFF/BLyS/TNFSF13B). Seeded cells were incubated at 37° C. in a humidified 5% CO2 atmosphere for 24 hr. Drugs and/or solvents were added (20 μl) to a final volume of 120 μl. Following 2 hr treatment plates were removed from the incubator and cell lysis was achieved by the addition of 30 μl 5× lysis buffer followed by shaking on a plate shaker at 4° C. for 10 min. At the end of this incubation lysed cells were centrifuged at 800×g for 20 min at 4° C. and the lysate was assessed for P-IKKα levels by sandwich immuno-assay carried out in anti-rabbit antibody coated Mesoscale plates. Within an experiment, the results for each treatment were the mean of 2 replicate wells. For initial screening purposes, compounds were tested using an 8 point dilution curve (serial 1:3 dilutions). For each experiment, controls (containing MG132 and BAFF but no test drug) and a blank incubation (containing MG132 and BAFF and 10 μM ADS125117, a test concentration known to give full inhibition) were run in parallel. The blank incubation value was subtracted from all control and sample values. To determine the IC50 a sigmoidal curve was fitted to the plot of % inhibition of control P-IKKα levels versus Log10 compound concentration.

[4] = test system: JJN-3 cells; test: Biological Assay C: antiproliferative activity on JJN-3 cells (CellTiter-Glo); type: cell-based, human; settings: Homo sapiens, JJN-3, 72 h, 72 hr treatment, averaged values
Method: (§1) Determination of Antiproliferative Activity on LP-1, L-363 and JJN-3 Cells
(§2) All compounds tested were dissolved in DMSO and further dilutions were made in culture medium. Final DMSO concentration was 0.3% (v/v) in cell proliferation assays. Viability was assessed using CellTiter-Glo cell viability assay kit (Promega). The human LP-1, L-363 and JJN-3 cells (DSMZ) were cultured in RPMI 1640 medium supplemented with 2 mM L-glutamine, and 10% fetal calf serum (PAA). Cells were routinely kept as suspension cells at 37° C. in a humidified 5% CO2 atmosphere. Cells were passaged at a seeding density of 0.2×10^6/ml twice a week. Cells were seeded in black tissue culture treated 96-well plates (Perkin Elmer). Densities used for plating ranged from 2,000 to 6,000 cells per well in a total volume of 75 μl medium. After twenty four hours, drugs and/or solvents were added (25 μl) to a final volume of 100 μl. Following 72 hr of treatment plates were removed from the incubator and allowed to equilibrate to room temperature for approx 10 min. 100 ut CellTiter-Glo reagent was added to each well that was then covered (Perkin Elmer Topseal) and shaken on plate shaker for 10 min. Luminescence was measured on a HTS Topcount (Perkin Elmer). Within an experiment, the results for each treatment were the mean of 2 replicate wells. For initial screening purposes, compounds were tested using a 9 point dilution curve (serial 1:3 dilutions). For each experiment, controls (containing no drug) and a blank incubation (containing cells read at the time of compound addition) were run in parallel. The blank value was subtracted from all control and sample values. For each sample, the mean value for cell growth (in relative light units) was expressed as a percentage of the mean value for cell growth of the control.

[5] = test system: L-363 cells; test: Biological Assay C: antiproliferative activity on L-363 cells (CellTiter-Glo); type: cell-based, human; settings: Homo sapiens, L-363, 72 h, 72 hr treatment, averaged values
Method: as §1, §2

[6] = test system: LP-1 cells; test: Biological Assay C: antiproliferative activity on LP-1 cells (CellTiter-Glo); type: cell-based, human; settings: Homo sapiens, LP-1, 72 h, 72 hr treatment, averaged values
Method: as §1, §2

T1 sequence (Q99558 whole entry): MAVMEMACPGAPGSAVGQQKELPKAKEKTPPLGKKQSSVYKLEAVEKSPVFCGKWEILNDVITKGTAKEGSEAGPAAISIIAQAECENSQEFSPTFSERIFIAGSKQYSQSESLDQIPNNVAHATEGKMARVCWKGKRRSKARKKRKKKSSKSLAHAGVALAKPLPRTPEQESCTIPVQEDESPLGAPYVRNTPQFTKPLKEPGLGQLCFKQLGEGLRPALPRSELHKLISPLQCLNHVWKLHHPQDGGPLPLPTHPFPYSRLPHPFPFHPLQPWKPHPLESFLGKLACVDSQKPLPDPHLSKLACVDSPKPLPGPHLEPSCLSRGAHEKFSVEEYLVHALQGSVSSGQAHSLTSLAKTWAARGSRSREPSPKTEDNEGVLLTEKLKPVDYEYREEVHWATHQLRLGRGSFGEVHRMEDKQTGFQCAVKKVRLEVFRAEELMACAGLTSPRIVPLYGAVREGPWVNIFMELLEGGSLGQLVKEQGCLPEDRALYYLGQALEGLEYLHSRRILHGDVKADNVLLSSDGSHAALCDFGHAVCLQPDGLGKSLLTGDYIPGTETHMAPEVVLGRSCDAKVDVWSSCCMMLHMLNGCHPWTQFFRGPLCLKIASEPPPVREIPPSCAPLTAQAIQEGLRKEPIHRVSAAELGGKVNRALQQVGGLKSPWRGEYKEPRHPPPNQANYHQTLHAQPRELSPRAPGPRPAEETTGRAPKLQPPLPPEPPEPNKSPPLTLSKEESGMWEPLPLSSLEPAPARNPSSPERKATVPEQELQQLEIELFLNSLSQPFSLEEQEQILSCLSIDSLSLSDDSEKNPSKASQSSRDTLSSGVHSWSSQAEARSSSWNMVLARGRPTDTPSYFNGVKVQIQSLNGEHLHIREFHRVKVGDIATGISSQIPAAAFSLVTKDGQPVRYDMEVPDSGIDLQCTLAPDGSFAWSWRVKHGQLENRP

| IC50 [1] | IC50 [2] | IC50 [3] | Structure (SMILES) | EC50 [4] | EC50 [5] | EC50 [6] |
| --- | --- | --- | --- | --- | --- | --- |
| 28 nM | 22 nM | 122 nM | CC(C)(O)C#Cc1ccc2[nH]cc(-c3cn[nH]c3)c2c1 [Compound 1] | 432 nM | 245 nM | 320 nM |
| 44 nM | 43 nM | 87 nM | CCn1cc(-c2c[nH]nc2N)c2cc(C#CC(C)(C)O)ccc21 [Compound 2] | 733 nM | 990 nM | 1420 nM |
| 71 nM | 35 nM | 139 nM | CCn1cc(-c2c[nH]nc2C)c2cc(C#CC(C)(C)O)ccc21 [Compound 3] | 1860 nM | 3120 nM | 3160 nM |
| 581 nM | 350 nM |  | CCn1cc(-c2c[nH]nc2C(F)(F)F)c2cc(C#CC(C)(C)O)ccc21 [Compound 4] |  |  |  |
| 38 nM | 25 nM | 145 nM | CC(C)(O)C#Cc1ccc2c(c1)c(-c1cn[nH]c1)cn2CC1CCOC1 (stereo not shown) [Compound 5] | 1410 nM | 1830 nM | 1890 nM |
| 6 nM | 66 nM | 73 nM | CC(C)(O)C#Cc1ccc2c(c1)c(-c1cn[nH]c1)cn2CC1COC1 [Compound 6] | 1080 nM | 704 nM | 1950 nM |
| 11 nM | 73 nM | 175 nM | COCCn1cc(-c2cn[nH]c2)c2cc(C#CC(C)(C)O)ccc21 [Compound 7] | 1410 nM | 1180 nM | 2180 nM |
| 13 nM | 14 nM | 18 nM | CC(C)n1cc(-c2cn[nH]c2)c2cc(C#CC(C)(C)O)ccc21 [Compound 8] | 218 nM | 221 nM | 219 nM |
| 8 nM | 43 nM | 54 nM | CCn1cc(-c2cn[nH]c2)c2cc(C#CC(C)(C)O)ccc21 [Compound 9] | 418 nM | 332 nM | 298 nM |
| 38 nM | 110 nM | 111 nM | CC(C)(O)C#Cc1ccc2c(c1)c(-c1cn[nH]c1)cn2CC(C)(C)O [Compound 10] | 723 nM | 759 nM | 947 nM |
| 16 nM | 65 nM | 83 nM | CC(C)(O)C#Cc1ccc2c(c1)c(-c1cn[nH]c1)cn2CCO [Compound 11] | 394 nM | 340 nM | 483 nM |
| 41 nM | 65 nM | 38 nM | Cn1cc(-c2cn[nH]c2)c2cc(C#CC(C)(C)O)ccc21 [Compound 12] | 754 nM | 700 nM | 769 nM |
| 9 nM | 7 nM | 16 nM | CC(O)(C#Cc1ccc2[nH]cc(-c3cn[nH]c3)c2c1)c1nccs1 (stereo not shown) [Compound 13] | 704 nM | 5520 nM | 9910 nM |
| 30 nM | 28 nM | 300 nM | OC1(C#Cc2ccc3[nH]cc(-c4cn[nH]c4)c3c2)CCCC1 [Compound 14] | 2200 nM | 4050 nM | 5440 nM |
|  | 11 nM | 32 nM | CC(C)(O)C#Cc1cc2c(-c3c[nH]nc3Cl)cn(CCCO)c2cc1F [Compound 22] | 255 nM | 430 nM | 1350 nM |
|  | 11 nM | 127 nM | CCn1cc(-c2c[nH]nc2Cl)c2cc(C#CC(C)(C)O)c(F)cc21 [Compound 24] | 734 nM | 683 nM | 1580 nM |
|  | 162 nM |  | CN1CCC(n2cc(-c3c[nH]nc3Cl)c3cc(C#CC(C)(O)c4ncccn4)c(F)cc32)CC1 (stereo not shown) [Compound 37] | 4470 nM | 2880 nM | 2510 nM |
